Experiments:
HIF = system: HIF; parameters: method as in earlier work; settings: luminal breast cancer cell line T47D; ref 62 (Chen et al.); cited from earlier work
MDA-MB-231 = test: Cell cycle studies (PI-DNA flow cytometry) in MDA-MB-231; type: cell-based, human; settings: MDA-MB-231, 20 nM, 72 h
Procedure: To investigate cell cycle progression in the presence of compound (1s) or paclitaxel (Santa Cruz Biotechnology; #sc-201439), we quantified the DNA content in the cell. On day 1, the cells were seeded in 1 mL into a 24 well plate (Greiner; #662160). On day 2, MDA-MB-468-UnaG were pre-treated either without (normoxia) or with 100 µM CoCl2 (hypoxia) (Sigma-Aldrich; #C8661) for 24 h before compounds were applied. On day 2 for MDA-MB-231 or on day 3 for MDA-MB-468-UnaG, paclitaxel was applied at the concentrations 15 nM, 37 nM, and 100 nM, and compound (1s) was applied at concentrations ranging from 2 nM to 1000 nM. […] The fluorescence signal resulting from PI-DNA complex formation was recorded using the flow cytometer CytoFlex (Beckmann Coulter, Krefeld, Germany). The cell cycle phase population was determined based on the DNA content in a set of chromosomes (n) in a cell using the integrated software CytExpert (Beckmann Coulter): sub-G0/G1 (<2n), G0/G1 (2n), S (>2n, <4n), G2/M (4n) or hyperploid cells (>4n) (see Figure S10).
FSC-A and FSC-height (H). (c) To evaluate cell cycles phases, the range of analyzed cells was deter-mined within the (b) single cells by excluding recorded events that extend the proportional distri-bution of the DNA chromosome set (n): < 2n; > 4n. […]

[1] = system: MDA-MB-231 monoculture spheroids; test: 3D invasion of monoculture spheroids into matrigel; type: cell-based, human; settings: 10 nM, 48 h
Procedure: To study TNBC invasion in an extracellular matrix (ECM)-like environment, mono-culture spheroids of MDA-MB-231 were generated in matrigel®, as described. In brief, 3000 MDA-MB-231 cells were seeded in 0.25% (v/v) matrigel® (Corning, Taufkirchen, Germany; #356432) into a low-attachment 96 well plate (Greiner; #650970 or Cenibra, Bramsche, Germany; #ULA-96U). For cell aggregation, cells were centrifugated for 10 min at 136× g at 4 °C before being grown for 72 h. Invasion was allowed for another […] before analyzing at least three spheroids per treatment group. For that purpose, brightfield images of the spheroids were acquired at 50× g magnification using the microscope Axio Vert.A1 (Zeiss). The spheroid area before treatment and the spheroid area including the invaded area after compound treatment were quantified in brightfield images using Fiji (open-source software; version 1.52i).
Figure 6 Compound (1s) blocks TNBC monoculture spheroid invasion in a matrigel®-based extracellular matrix (ECM). […] (a) Invaded area was measured using Fiji (open-source software; version 1.52i) with manually picked positions (white squares) to determine the outline (yellow line) of the spheroid area within 0 h and after 48-h treatment. […] (c) Invaded area is calculated by normalizing the spheroid area after 48 h treatment to the spheroid size at 0 h. […]

MDA-MB-468-UnaG = test: Cell cycle studies (PI-DNA flow cytometry) in MDA-MB-468-UnaG; type: cell-based; settings: normoxia
Procedure: To investigate cell cycle progression in the presence of compound (1s) or paclitaxel (Santa Cruz Biotechnology; #sc-201439), we quantified the DNA content in the cell. On day 1, the cells were seeded in 1 mL into a 24 well plate (Greiner; #662160). On day 2, MDA-MB-468-UnaG were pre-treated either without (normoxia) or with 100 µM CoCl2 (hypoxia) (Sigma-Aldrich; #C8661) for 24 h before compounds were applied. On day 2 for MDA-MB-231 or on day 3 for MDA-MB-468-UnaG, paclitaxel was applied at the concentrations 15 nM, 37 nM, and 100 nM, and compound (1s) was applied at concentrations ranging from 2 nM to 1000 nM. Post-treatment cells were washed in 1× PBS (Thermo Fisher Scientific; #14190); fixed in 70% (v/v) ethanol overnight at 4 °C; washed again in 1× PBS; and, finally, DNA was stained for 15 min at 37 °C in the presence of 10 µg/mL propium iodide (PI; Sigma-Aldrich; #4864) and 100 µg/mL RNase A (Thermo Fisher Scientific; #EN0531) dissolved in 0.1% triton™ X-100 (Sigma-Aldrich; #X100), dissolved in PBS. The fluorescence signal resulting from PI-DNA complex formation was recorded using the flow cytometer CytoFlex (Beckmann Coulter, Krefeld, Germany). The cell cycle phase population was determined based on the DNA content in a set of chromosomes (n) in a cell using the integrated software CytExpert (Beckmann Coulter): sub-G0/G1 (<2n), G0/G1 (2n), S (>2n, <4n), G2/M (4n) or hyperploid cells (>4n) (see Figure S10).

Row | Compound | HIF induction under low oxygen level (HIF) | cell cycle phase population (MDA-MB-231) | blockade of invasion (invaded area) [1] | sub-G0/G1 population (MDA-MB-468-UnaG; 48 h) | cell cycle phase population (MDA-MB-468-UnaG; (1s) 20 nM 72 h, paclitaxel within 24 h)
1 | COc1ccc2c3c(c4cc(OC)c(OC)cc4c2c1)CN1CCCC1C3O (centres unmarked) [Compound (1), O-methyltylophorinidine] | blockade of HIF induction | Cell populations increased in the S-phase as well as in the G2/M phase |  |  | 
2 | COc1ccc2c3c(c4cc(OC)c(OC)cc4c2c1)CN1CCCC1C3O (centres unmarked) [Compound (1s), O-methyltylophorinidine] |  |  | approximately 65% | increase in the sub-G0/G1 population | significant increase in G2/M population

— article PMC9499467, “Phenanthroindolizidine Alkaloids Isolated from Tylophora ovata as Potent Inhibitors of Inflammation, Spheroid Growth, and Invasion of Triple-Negative Breast Cancer” (International Journal of Molecular Sciences, 2022)
